The target in the test is T1, p38 MAP kinase (Homo sapiens, UniProt Q16539).
T1 construct: made in house; host or cells: E. coli (co-expressed with SEK-1 and MEKK)
Nature of the test: p38 (MAP) kinase in vitro assay (transfer of γ-33P from ATP to Myelin Basic Protein). It is filed as biochemical. The settings on record: phosphorylated recombinant p38 MAP kinase, MBP substrate, γ-33P-ATP, 30° C. The method, then: This example illustrates a p38 (MAP) kinase in vitro assay useful for evaluating the compounds of the invention.
The p38 MAP kinase inhibitory activity of compounds of this invention in vitro was determined by measuring the transfer of the γ-phosphate from γ-^33P-ATP by p-38 kinase to Myelin Basic Protein (MBP), using a minor modification of the method described in Ahn, et al., J. Biol. Chem. 266:4220-4227 (1991).
The phosphorylated form of the recombinant p38 MAP kinase was co-expressed with SEK-1 and MEKK in E. Coli (see, Khokhlatchev, et al., J. Biol. Chem. 272:11057-11062 (1997)) and then purified by affinity chromatography using a Nickel column.
The phosphorylated p38 MAP kinase was diluted in kinase buffer (20 mM 3-(N-morpholino)propanesulfonic acid, pH 7.2, 25 mM β-glycerol phosphate, 5 mM ethylene glycol-bis(beta-aminoethyl ether)-N,N,N′,N′-tetraacetic acid, 1 mM sodium ortho-vanadate, 1 mM dithiothreitol, 40 mM magnesium chloride). Test compound dissolved in DMSO or only DMSO (control) was added and the samples were incubated for 10 min at 30° C. The kinase reaction was initiated by the addition of a substrate cocktail containing MBP and γ-^33P-ATP. […] The phosphorylated MBP was then separated from the residual γ-^33P-ATP using a phosphocellulose membrane (Millipore, Bedfrod, Mass.) and quantitated using a scintillation counter (Packard, Meriden, Conn.).

One may read the IC50 as the point on the concentration scale where inhibition reaches its midpoint.

T1 sequence (Q16539 whole entry): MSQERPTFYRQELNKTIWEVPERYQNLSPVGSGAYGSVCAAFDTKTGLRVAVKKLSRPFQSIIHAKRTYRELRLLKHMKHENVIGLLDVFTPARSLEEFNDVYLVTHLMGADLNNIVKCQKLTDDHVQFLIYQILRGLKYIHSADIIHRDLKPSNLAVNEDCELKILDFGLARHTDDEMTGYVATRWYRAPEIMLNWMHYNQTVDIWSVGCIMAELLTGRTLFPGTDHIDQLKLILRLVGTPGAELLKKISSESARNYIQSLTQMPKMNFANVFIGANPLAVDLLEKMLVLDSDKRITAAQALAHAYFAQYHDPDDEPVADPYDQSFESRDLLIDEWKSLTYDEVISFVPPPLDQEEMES

For the compound `CNC(=O)c1ccc(C)c(-c2cc3[nH]nc(N4CCCCC4)c3n(C)c2=O)c1` [Compound 8, 4,N-Dimethyl-3-(4-methyl-5-oxo-3-piperidin-1-yl-4,5-dihydro-1H-pyrazolo[4,3-b]pyridin-6-yl)-benzamide], the IC50 was roughly 3 nM.

The values above are taken from patent US20080207684A1, “Kinase inhibitors and methods for using the same” (Roche Palo Alto LLC, priority 2007, published 2008).
